Assay results as given in ChEMBL document CHEMBL3797199, “Anti-gout nor-oleanane triterpenoids from the leaves of Stauntonia brachyanthera” (Bioorg Med Chem Lett, 2016).

Target: Xanthine dehydrogenase/oxidase (Bos taurus, UniProt P80457)
Experiment: Inhibition of bovine milk xanthine oxidase using xanthine as substrate preincubated for 15 mins followed by substrate addition by spectrophotometric method

Sequence of Xanthine dehydrogenase/oxidase (P80457 whole entry): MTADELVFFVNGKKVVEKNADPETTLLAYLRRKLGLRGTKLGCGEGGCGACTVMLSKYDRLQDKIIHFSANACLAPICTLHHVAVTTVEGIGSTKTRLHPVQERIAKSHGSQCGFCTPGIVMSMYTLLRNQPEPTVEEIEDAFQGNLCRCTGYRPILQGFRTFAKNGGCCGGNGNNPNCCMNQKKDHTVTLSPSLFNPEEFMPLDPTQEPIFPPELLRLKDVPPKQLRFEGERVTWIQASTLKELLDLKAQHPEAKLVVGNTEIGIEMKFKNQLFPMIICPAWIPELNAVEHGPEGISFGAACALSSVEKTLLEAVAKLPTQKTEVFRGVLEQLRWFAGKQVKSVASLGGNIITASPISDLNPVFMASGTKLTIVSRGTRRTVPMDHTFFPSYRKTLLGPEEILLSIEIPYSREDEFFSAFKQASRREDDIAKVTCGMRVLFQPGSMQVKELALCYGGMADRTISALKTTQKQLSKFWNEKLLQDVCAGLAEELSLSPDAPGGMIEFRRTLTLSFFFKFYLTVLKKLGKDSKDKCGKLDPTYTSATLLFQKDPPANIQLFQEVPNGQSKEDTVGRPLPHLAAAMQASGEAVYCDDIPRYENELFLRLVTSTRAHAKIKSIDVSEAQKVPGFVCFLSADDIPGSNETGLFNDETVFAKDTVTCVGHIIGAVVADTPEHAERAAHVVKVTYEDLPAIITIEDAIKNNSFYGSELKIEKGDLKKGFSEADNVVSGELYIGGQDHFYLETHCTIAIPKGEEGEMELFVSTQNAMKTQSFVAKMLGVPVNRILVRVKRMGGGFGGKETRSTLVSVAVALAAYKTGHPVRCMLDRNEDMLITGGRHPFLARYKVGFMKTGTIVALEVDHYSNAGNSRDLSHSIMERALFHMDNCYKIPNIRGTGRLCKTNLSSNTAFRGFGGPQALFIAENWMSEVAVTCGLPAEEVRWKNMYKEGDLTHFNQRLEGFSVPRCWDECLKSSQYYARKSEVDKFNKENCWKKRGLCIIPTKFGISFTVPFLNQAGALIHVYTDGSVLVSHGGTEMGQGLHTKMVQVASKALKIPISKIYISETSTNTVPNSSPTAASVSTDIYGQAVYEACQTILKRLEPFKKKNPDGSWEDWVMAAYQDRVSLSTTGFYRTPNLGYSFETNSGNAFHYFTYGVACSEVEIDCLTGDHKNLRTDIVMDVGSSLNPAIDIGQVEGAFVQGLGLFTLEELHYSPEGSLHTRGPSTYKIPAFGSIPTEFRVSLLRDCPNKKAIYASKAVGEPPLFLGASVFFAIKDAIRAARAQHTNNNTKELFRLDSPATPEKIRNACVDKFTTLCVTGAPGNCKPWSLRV

Row | SMILES | IC50 [µM]
1 | C=C1CC[C@]2(C(=O)O[C@@H]3O[C@H](CO[C@@H]4O[C@H](CO)[C@@H](O)[C@H](O)[C@H]4O)[C@@H](O)[C@H](O)[C@H]3O)CC[C@]3(C)C(=CC[C@@H]4[C@@]5(C)CC[C@H](O[C@@H]6OC[C@H](O)[C@H](O)[C@H]6O)[C@@](C)(CO)[C@@H]5CC[C@]43C)[C@@H]2C1 | 79.6
2 | C[C@]12C[C@@H](O)[C@H](O)[C@](C)(CO)[C@@H]1CC[C@]1(C)[C@@H]2CC=C2[C@@H]3C[C@](C)(C(=O)O)[C@@H](O)C[C@]3(C(=O)O)CC[C@]21C | > 100
3 | C=C1CC[C@]2(C(=O)O[C@@H]3O[C@H](CO[C@@H]4O[C@H](CO)[C@@H](O[C@@H]5O[C@@H](C)[C@H](O)[C@@H](O)[C@H]5O)[C@H](O)[C@H]4O)[C@@H](O)[C@H](O)[C@H]3O)CC[C@]3(C)C(=CC[C@@H]4[C@@]5(C)CC[C@H](O[C@@H]6OC[C@H](O)[C@H](O[C@@H]7O[C@H](C(=O)O)[C@@H](O)[C@H](O)[C@H]7O)[C@H]6O)[C@@](C)(CO)[C@@H]5CC[C@]43C)[C@@H]2C1 | 91.3
4 | C=C1CC[C@]2(C(=O)O[C@@H]3O[C@H](CO[C@@H]4O[C@H](CO)[C@@H](O)[C@H](O)[C@H]4O)[C@@H](O)[C@H](O)[C@H]3O)CC[C@]3(C)C(=CC[C@@H]4[C@@]5(C)CC[C@H](O[C@@H]6OC[C@H](O)[C@H](O[C@@H]7OC[C@H](O)[C@H](O)[C@H]7O)[C@H]6O)C(C)(C)[C@@H]5CC[C@]43C)[C@@H]2C1 | > 100
5 | C=C1CC[C@@]2(C(=O)O[C@@H]3O[C@H](CO[C@@H]4O[C@H](CO)[C@@H](O)[C@H](O)[C@H]4O)[C@@H](O)[C@H](O)[C@H]3O)CC[C@@]3(C)C(=CC[C@H]4[C@]5(C)CC[C@@H](O[C@@H]6OC[C@H](O)[C@H](O)[C@H]6O[C@@H]6OC[C@H](O)[C@H](O[C@H]7OC[C@@H](O)[C@@H](O)[C@@H]7O)[C@H]6O)C(C)(C)[C@H]5CC[C@@]43C)[C@H]2C1 | > 100
6 | C[C@@H]1O[C@@H](O[C@@H]2[C@@H](O[C@H]3CC[C@]4(C)[C@H]5CC=C6[C@@H]7C[C@H](CO)CC[C@]7(C(=O)O[C@H]7O[C@@H](CO[C@@H]8O[C@H](CO)[C@@H](O[C@@H]9O[C@@H](C)[C@H](O)[C@@H](O)[C@H]9O)[C@H](O)[C@H]8O)[C@H](O)[C@@H](O)[C@@H]7O)CC[C@@]6(C)[C@]5(C)CC[C@H]4C3(C)C)OC[C@@H](O)[C@H]2O)[C@H](O)[C@H](O)[C@H]1O | > 100
7 | C=C1CC[C@]2(C(=O)O[C@H]3O[C@@H](CO[C@@H]4O[C@H](CO)[C@@H](O[C@@H]5O[C@@H](C)[C@H](O)[C@@H](O)[C@H]5O)[C@H](O)[C@H]4O)[C@H](O)[C@@H](O)[C@@H]3O)CC[C@]3(C)C(=CC[C@@H]4[C@@]5(C)CC[C@H](O[C@H]6OC[C@@H](O)[C@@H](O[C@H]7OC[C@@H](O)[C@@H](O)[C@@H]7O[C@@H]7OC[C@@H](O)[C@H](O[C@H]8OC[C@@H](O)[C@@H](O)[C@@H]8O)[C@H]7O)[C@@H]6O)C(C)(C)[C@@H]5CC[C@]43C)[C@@H]2C1 | > 100
8 | C=C1CC[C@]2(C(=O)O[C@H]3O[C@@H](CO[C@H]4O[C@@H](CO)[C@H](O)[C@@H](O)[C@@H]4O)[C@H](O)[C@@H](O)[C@@H]3O)CC[C@]3(C)C(=CC[C@@H]4[C@@]5(C)CC[C@H](O[C@H]6OC[C@@H](O)[C@@H](O)[C@@H]6O[C@@H]6O[C@@H](C)[C@H](O)[C@@H](O[C@H]7OC[C@@H](O)[C@@H](O)[C@@H]7O)[C@H]6O)C(C)(C)[C@@H]5CC[C@]43C)[C@@H]2C1 | > 100

Second part, the molecule after the results:

Row | IC50 [µM] | SMILES
9 | 49.2 | C[C@]12CC[C@H](O)[C@](C)(CO[C@@H]3O[C@H](CO)[C@@H](O)[C@H](O)[C@H]3O)[C@@H]1CC[C@]1(C)[C@@H]2CC=C2[C@@H]3C[C@](C)(C(=O)O)[C@@H](O)C[C@]3(C(=O)O)CC[C@]21C
10 | 18.5 | C=C1CC[C@]2(C(=O)O)CC[C@]3(C)C(=CC[C@@H]4[C@@]5(C)CC[C@H](O[C@@H]6OC[C@H](O)[C@H](O)[C@H]6O[C@@H]6O[C@@H](C)[C@H](O)[C@@H](O)[C@H]6O)C(C)(C)[C@@H]5CC[C@]43C)[C@@H]2C1
11 | 0.2 | C[C@H]1O[C@@H](O[C@H]2[C@H](OC[C@]3(C)[C@@H]4CC[C@]5(C)[C@H](CC=C6[C@@H]7C[C@](C)(O)[C@@H](O)C[C@]7(C(=O)O)CC[C@]65C)[C@@]4(C)CC[C@@H]3O)O[C@H](CO)[C@@H](O)[C@@H]2O)[C@H](O)[C@@H](O)[C@@H]1O
